From patent publication US20240150377A1, “MODULATORS OF CYSTIC FIBROSIS TRANSMEMBRANE CONDUCTANCE REGULATOR” (VERTEX PHARMACEUTICALS INCORPORATED, priority 2020, published 2024) come the findings set out here.

For series [1] the following is noted: amide bond, 13-membered ring.
The next series has as its target T1, CFTR (Homo sapiens, UniProt P13569, DEL508-508).
T1 construct: endogenous in cells; host or cells: primary human bronchial epithelial cells from CF subjects (F508del/MF-HBE), differentiated at air-liquid interface
The series can be described thus: HBE assay: Ussing chamber assay of CFTR-mediated short-circuit currents. In kind it is cell-based. The conditions noted are these: for EC50: read-out: HBE EC50. In outline: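 CFTR-mediated Isc (μA/cm²) equals the peak response to apical 20 μM forskolin minus the residual after a 20 μM each BPO/GlyH-101/CFTR inhibitor 172 cocktail, recorded in Ussing chambers at Vhold 0 mV, 37 °C, pH 7.4, with 30 μM apical amiloride. Cells were F508del/MF HBE cultures preincubated 18-24 h with corrector (concentration range or 10 μM) plus 1 μM ivacaftor in 20% human serum.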

The mark [2] stands for this setting: Table 11, read-out: HBE Max Activity (%).

Molecules are shown by their SMILES. Several values for one entry are separate records, joined by “and”; a condition that tells them apart may be missing. Equal entries are not always repeated. Where two headings read alike, the source gives them in different places.

T1 sequence (P13569 with tags, fused parts or gaps DEL508-508): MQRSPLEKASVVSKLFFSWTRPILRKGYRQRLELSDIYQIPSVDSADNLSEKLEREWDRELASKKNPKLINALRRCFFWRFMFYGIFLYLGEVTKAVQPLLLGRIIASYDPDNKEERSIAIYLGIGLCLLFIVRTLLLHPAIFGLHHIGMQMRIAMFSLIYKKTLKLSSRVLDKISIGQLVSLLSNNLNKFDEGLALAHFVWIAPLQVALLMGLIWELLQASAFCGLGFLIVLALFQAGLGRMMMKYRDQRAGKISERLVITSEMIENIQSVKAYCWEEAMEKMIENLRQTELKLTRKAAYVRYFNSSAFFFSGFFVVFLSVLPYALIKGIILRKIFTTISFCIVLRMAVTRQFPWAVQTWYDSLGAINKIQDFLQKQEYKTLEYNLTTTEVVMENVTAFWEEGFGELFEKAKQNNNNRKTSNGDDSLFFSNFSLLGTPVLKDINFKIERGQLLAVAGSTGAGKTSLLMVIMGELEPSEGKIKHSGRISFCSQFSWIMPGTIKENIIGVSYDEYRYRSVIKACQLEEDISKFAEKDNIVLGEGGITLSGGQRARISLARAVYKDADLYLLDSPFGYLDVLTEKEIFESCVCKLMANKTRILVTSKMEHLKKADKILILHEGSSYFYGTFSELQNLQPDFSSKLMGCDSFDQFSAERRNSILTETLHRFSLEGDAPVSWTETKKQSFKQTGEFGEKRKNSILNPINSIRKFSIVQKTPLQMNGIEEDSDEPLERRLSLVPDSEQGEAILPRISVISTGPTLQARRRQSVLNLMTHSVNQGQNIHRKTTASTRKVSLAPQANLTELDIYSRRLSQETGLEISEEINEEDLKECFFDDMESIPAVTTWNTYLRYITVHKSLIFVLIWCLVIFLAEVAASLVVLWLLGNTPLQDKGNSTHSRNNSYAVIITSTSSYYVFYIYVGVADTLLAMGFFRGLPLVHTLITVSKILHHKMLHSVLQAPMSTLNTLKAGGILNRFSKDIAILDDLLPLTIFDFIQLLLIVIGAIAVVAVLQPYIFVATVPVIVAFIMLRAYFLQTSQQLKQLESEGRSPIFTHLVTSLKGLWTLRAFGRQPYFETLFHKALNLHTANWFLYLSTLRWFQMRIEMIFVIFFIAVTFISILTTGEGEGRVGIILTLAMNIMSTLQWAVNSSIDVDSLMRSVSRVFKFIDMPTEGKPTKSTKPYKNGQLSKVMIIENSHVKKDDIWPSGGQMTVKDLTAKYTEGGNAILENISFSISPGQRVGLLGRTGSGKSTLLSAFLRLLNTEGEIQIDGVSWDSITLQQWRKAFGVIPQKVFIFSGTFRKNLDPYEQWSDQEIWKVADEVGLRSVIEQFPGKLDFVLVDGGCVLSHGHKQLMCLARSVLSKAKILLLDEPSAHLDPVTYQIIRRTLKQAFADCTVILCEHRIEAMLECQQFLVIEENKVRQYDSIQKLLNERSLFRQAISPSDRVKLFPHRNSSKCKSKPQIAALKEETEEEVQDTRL

In turn, `Cc1cccc(C)c1-c1cc2nc(n1)NS(=O)(=O)c1cccc(c1)C(=O)N(Cc1cc(C3CC3)no1)[C@H](CC(C)(C)C)CO2` [Compound 137, (11R)-12-[(3-Cyclopropyl-1,2-oxazol-5-yl)methyl]-6-(2,6-dimethylphenyl)-11-(2,2-dimethylpropyl)-9-oxa-2λ^6-thia-3,5,12,19-tetraazatricyclo[12.3.1.14,8]nonadeca-1(17),4(19),5,7,14(18),15-hexaene-2,2,13-trione] showed a ring closure, yield after HPLC in series [1] (from Cc1cccc(C)c1-c1cc(OC[C@@H](CC(C)(C)C)NCc2cc(C3CC3)no2)nc(NS(=O)(=O)c2cccc(C(=O)O)c2)n1, HATU/TEA, DMF, 15.4 mM, 2.0 h) of 44%. Besides, the EC50 (usually the concentration that produces a half-maximal response) at CFTR (Table 11) is less than 1000 nM. Further, on CFTR (setting [2]), the Emax is greater than 60%.

The molecule `Cc1cccc(C)c1-c1cc2nc(n1)NS(=O)(=O)c1cccc(c1)C(=O)N(Cc1cccn(C)c1=O)[C@H](CC(C)(C)C)CO2` [Compound 59, (11R)-6-(2,6-Dimethylphenyl)-11-(2,2-dimethylpropyl)-12-[(1-methyl-2-oxo-3-pyridyl)methyl]-2,2-dioxo-9-oxa-2λ^6-thia-3,5,12,19-tetrazatricyclo[12.3.1.14,8]nonadeca-1(18),4(19),5,7,14,16-hexaen-13-one] displayed a ring closure, yield after HPLC in series [1] (from Cc1cccc(C)c1-c1cc(OC[C@@H](CC(C)(C)C)NCc2cccn(C)c2=O)nc(NS(=O)(=O)c2cccc(C(=O)O)c2)n1, HATU/DIEA, DMF, 28.1 mM, 25.0 °C, 2.0 h) of 54%. The EC50 on CFTR (Table 11) was less than 1000 nM. In addition, the Emax at CFTR (setting [2]) is greater than 60%.

In the case of `Cc1cccc(C)c1-c1cc2nc(n1)NS(=O)(=O)c1cccc(c1)C(=O)N(Cc1ccc(N3CCOCC3)nn1)[C@H](CC(C)(C)C)CO2` [Compound 111, (11R)-6-(2,6-Dimethylphenyl)-11-(2,2-dimethylpropyl)-12-[(6-morpholinopyridazin-3-yl)methyl]-2,2-dioxo-9-oxa-2λ^6-thia-3,5,12,19-tetrazatricyclo[12.3.1.14,8]nonadeca-1(18),4(19),5,7,14,16-hexaen-13-one], the ring closure, yield after HPLC in series [1] (from Cc1cccc(C)c1-c1cc(OC[C@@H](CC(C)(C)C)NCc2ccc(N3CCOCC3)nn2)nc(NS(=O)(=O)c2cccc(C(=O)O)c2)n1, CDMT/NMM, DMF, 25.0 °C, 3.0 h, 2 steps) stood at 10%. Besides, the EC50 at CFTR (Table 10) was less than 1000 nM. Besides, at CFTR (Table 10, read-out: HBE Max activity (%)), the Emax was greater than 60%.

Turning to `Cc1cccc(C)c1-c1cc2nc(n1)NS(=O)(=O)c1cccc(c1)C(=O)N(CCc1cccc(F)n1)[C@H](CC(C)(C)C)CO2`, the ring closure, yield after HPLC in series [1] (from Cc1cccc(C)c1-c1cc(OC[C@@H](CC(C)(C)C)NCCc2cccc(F)n2)nc(NS(=O)(=O)c2cccc(C(=O)O)c2)n1, CDMT/NMM, DMF, 25.0 °C, 3.0 h, 2 steps) came to 6%.

For `Cc1cccc(C)c1-c1cc2nc(n1)NS(=O)(=O)c1cccc(c1)C(=O)N(C)CC(c1ccc(CC3(C(F)(F)F)CC3)cn1)O2` (stereo not shown), the ring closure, yield after HPLC in series [1] (from CNCC(Oc1cc(-c2c(C)cccc2C)nc(NS(=O)(=O)c2cccc(C(=O)O)c2)n1)c1ccc(CC2(C(F)(F)F)CC2)cn1, HATU (excess NaOtBu from SNAr), THF/DMF, 49.6 mM, 25.0 °C, 3.0 h, 2 steps) amounted to 35%.

Regarding `Cc1cccc(C)c1-c1cc2nc(n1)NS(=O)(=O)c1cccc(c1)C(=O)N(Cc1ccccn1)[C@H](CC(C)(C)C)CO2`, the ring closure, yield after HPLC in series [1] (from Cc1cccc(C)c1-c1cc(OC[C@@H](CC(C)(C)C)NCc2ccccn2)nc(NS(=O)(=O)c2cccc(C(=O)O)c2)n1, HATU/TEA, DMF, 20.2 mM, 16.0 h) is 41%.

Consider `Cc1cccc(C)c1-c1cc2nc(n1)NS(=O)(=O)c1cccc(c1)C(=O)N(Cc1ccc(F)nc1)[C@H](CC(C)(C)C)CO2`, for which the ring closure, yield after HPLC in series [1] (from Cc1cccc(C)c1-c1cc(OC[C@@H](CC(C)(C)C)NCc2ccc(F)nc2)nc(NS(=O)(=O)c2cccc(C(=O)O)c2)n1, CDMT/NMM, DMF, 25.0 °C, 5.0 h, 2 steps) stood at 34%.

Molecule `CCOC(=O)COc1ccc(CN2C(=O)c3cccc(c3)S(=O)(=O)Nc3nc(cc(-c4c(C)cccc4C)n3)OC[C@H]2CC(C)(C)C)nc1` displayed a ring closure, yield after HPLC in series [1] (from CCOC(=O)COc1ccc(CN[C@@H](COc2cc(-c3c(C)cccc3C)nc(NS(=O)(=O)c3cccc(C(=O)O)c3)n2)CC(C)(C)C)nc1, HATU/DIEA, DMF, 29.1 mM, 25.0 °C, 4.0 h) of 42%.

On to `Cc1cccc(C)c1-c1cc2nc(n1)NS(=O)(=O)c1cccc(c1)C(=O)N(Cc1cccc(F)n1)[C@H](CC(C)(C)C)CO2`, for which, in series [1] (from 3-[[4-(2,6-dimethylphenyl)-6-[(2R)-2-[(6-fluoro-2-pyridyl)methylamino]-4,4-dimethyl-pentoxy]pyrimidin-2-yl]sulfamoyl]benzoic acid (Dihydrochloride salt), CDMT/NMM, DMF, 25.2 mM), the ring closure, yield after HPLC worked out at 66%.

Consider `Cc1cccc(C)c1-c1cc2nc(n1)NS(=O)(=O)c1cccc(c1)C(=O)N(C[C@H]1COC(C)(C)O1)[C@H](CC(C)C)CO2`, for which the ring closure, yield after HPLC in series [1] (from Cc1cccc(C)c1-c1cc(OC[C@@H](CC(C)C)NC[C@H]2COC(C)(C)O2)nc(NS(=O)(=O)c2cccc(C(=O)O)c2)n1, HATU/DIEA, DMF, 26.2 mM, 25.0 °C, 2.0 h, 2 steps) is 12%.

As to `Cc1cccc(C)c1-c1cc2nc(n1)NS(=O)(=O)c1cccc(c1)C(=O)N(Cc1cncc(N3CCC[C@H]3C)n1)C(C1CC(C)(C)C1)CO2` (stereo partly shown), in series [1] (from Cc1cccc(C)c1-c1cc(OCC(NCc2cncc(N3CCC[C@H]3C)n2)C2CC(C)(C)C2)nc(NS(=O)(=O)c2cccc(C(=O)O)c2)n1, CDMT/NMM, DMF, 12.7 mM, 16.5 h), the ring closure, yield after HPLC is 18% and 17%.

Molecule `Cc1cccc(C)c1-c1cc2nc(n1)NS(=N)(=O)c1cccc(c1)C(=O)N(Cc1ncc(N3CC(C)(C)C3)cn1)[C@H](CC(C)(C)C)CO2` (single isomer, unassigned; isomer a) showed a ring closure, yield after HPLC in series [1] (from Cc1cccc(C)c1-c1cc(OC[C@@H](CC(C)(C)C)NCc2ncc(N3CC(C)(C)C3)cn2)nc(NS(=N)(=O)c2cccc(C(=O)O)c2)n1, CDMT/NMM, DMF, 21.8 mM, 14.0 h) of 9%.

For the molecule `Cc1cccc(C)c1-c1cc2nc(n1)NS(=O)(=O)c1cccc(c1)C(=O)N(CCc1ccc(Br)cn1)[C@H](CC(C)(C)C)CO2`, the ring closure, yield after HPLC in series [1] (from Cc1cccc(C)c1-c1cc(OC[C@@H](CC(C)(C)C)NCCc2ccc(Br)cn2)nc(NS(=O)(=O)c2cccc(C(=O)O)c2)n1, CDMT/NMM, DMF, 25.0 °C, 3.0 h, 2 steps) worked out at 15%.
